Data taken from patent US7258861B2, “TNF-derived peptides for use in treating oedema” (Innogenetics N.V., priority 2001, dated 2007).
“And” between values parts separate entries of the source, which are not always exact repeats. Equal entries are not always repeated.

Key:
[1] = test system: lung microvascular endothelial cells; assay: Whole-cell patch clamp, membrane conductance in lung microvascular endothelial cells; type: cell-based, mouse
From the text: (§1) Animals, cells and reagents. Male CBA/J or C57BL/6 mice, as well as male TNFR ½^0/0 C57BL/6 mice deficient in TNF receptors (Bruce et al., 1996) provided by H. Bluethmann, F. Hoffmann-La Roche, Basel, Switzerland, were used at the age of 8–10 weeks. Their care was in accordance with institutional guidelines. Lung microvascular endothelial cells were isolated from CBA/J mice and characterized as described (Jackson et al., 1990) using magnetic beads (Dynabeads M-450, Dynal, Oslo, Norway), covalently bound to a purified rat-anti-mouse PECAM-1 monoclonal antibody (donated by B. Imhof, University of Geneva). Microvascular lung endothelial cells were resuspended in DMEM containing 2 mM L-glutamine, 100 U/ml penicillin, […], 20% FCS, 40 U/ml heparin and […] endothelial cell growth supplement (Brunschwig Chemie, Basel, Switzerland). For patch clamp experiments, cells were plated onto 35×10 mm easy grip Petri dishes (Beckton Dickinson, Plymouth, UK), pre-coated with 0.2% gelatin (Sigma, Buchs, Switzerland). Resident peritoneal macrophages, isolated in ice cold RPMI containing antibiotics and 10 U/ml Heparin, were left to adhere onto 35×10 mm easy grip Petri dishes for 4 h, after which the non-adherent cells were removed. Cells were grown in RPMI 1640 containing 2 mM L-glutamine, 100 U/ml penicillin, 10 μpg/ml streptomycin and 10% fetal bovine serum (all from Gibco). For patch clamp, the macrophages ware used 24 h after isolation.
Electrophysiology. Cells were pretreated for 30 min with TNF, mutTNF and tip peptides at 37° C. in a buffer consisting of 145 mM NaCl, 3 mM KCl, 2mM CaCl2, 2mM MgCl2, 10 mM D-glucose, and 10mM Hepes, and pH-adjusted with NaOH to required value. Cells were then washed with the same buffer pH-adjusted at 7.3, and experiments were performed using the tight-seal, whole-cell recording technique. Currents were recorded with an Axopatch-200A amplifier (Axon Instrument Inc, Foster City, Calif., USA), low pass-filtered at 1 kHz. Digitalization and off-line analysis was performed using the WCP program (J. Dempster, Strathclyde Electrophysiology Software, Glasgow, UK). Patch pipettes were pulled from borosilicate glass and fire polished to have an open resistance of 3–5 MW with an internal solution containing […], 2 mM MgCl2, 10mM EGTA, 20 mM TEA-Cl, 10 mM D-glucose 10 mM Hepes, pH-adjusted to 7.3 with CsOH. Series resistances were kept under 10 MW. Capacitance and series resistance compensation were applied and set to 70%. All experiments were done at room temperature. Results are given as mean ±SEM, unless otherwise indicated. Analysis of variance was performed on currents and membrane conductance values, with post-hoc Dunn-Bonferroni test for significance of differences observed between two groups. A P value of 0.05 was considered significant.

[2] = Chloride efflux from SPQ-containing liposomes; details: 100% EPG liposomes, pH 6.1, 3 μg/ml
Procedure: Preparation of liposomes. Large unilamellar liposomes were prepared by reverse phase evaporation as previously described (Vecsey-Semjen et al., 1996). Liposomes were prepared of either 100% egg phosphatidylglycerol (EPG) or a mixture of EPC and EPG (1:1 W/W) in a buffer containing 100 mM KCl, 20 mM N-[2-Hydroxyethyl]piperazine-N′-[2-ethane-sulfonic acid] (HEPES), pH 7.4 and 1.5 mg/ml of 6-methoxy-N-(3-sulfopropyl)quinolinium (SPQ).
Choride efflux measurements. All fluorescence experiments were carried out using a PTI spectrofluorometer equipped with a thermostated cell holder (37° C.). The dye was excited at 350 nm and emission was recorded at 422 nm, both excitation and emission band widths were set to 5 nm. Liposomes were diluted to a final concentration of 50 μg/ml in a solution containing 100 mM KNO3 and 20 mM MES pH 6.1 or 20 mM HEPES, pH 7.4. Wild type and mutant TNF were added to a final concentration of 3 μg/ml.

[3] = test system: ex vivo instilled rat lung; assay: Ex vivo rat flooded lung, model of hydrostatic edema
Procedure: In this model edema is induced by instillating 2 ml of 0.9% NaCl solution intratracheally. Alternatively, edema formation can be modulated by varying the height of the venous outflow and the perfusion buffer containing reservoir, or alternatively by varying the time the lung is exposed to the elevated pressure. […] The clearance of alveolar fluid from the lung is calculated by means of measuring the concentration of HSA, which is added to the instillate over time. Alternatively, the over time weight loss as a measure of edema resorption (high weight loss is high liquid clearance), of the artificially instilled lung can be measured. The lung tidal volume, compliance and weight are monitored continuously during the experiment. At the end of the experiment bronchoalveolar fluid and supernatant of lung homogenate is taken for measurement of inflammatory mediators.
The lungs of female Wistar rats (weight 200–250 g; Harlan-Winkelmann, Borchen, Germany) are prepared after terminal i.p. anesthesia by 160 mg/kg pentobarbitural —Na (Merial Ltd, Halbermoos, Germany) and perfused as described by Uhlig and Wolin (1994), and by Uhlig and von Bethmann (1997). All equipment is obtained from Hugo Sachs Electronics (March-Hugstetten, Germany). […] As perfusion medium, a Krebs-Henseleit buffer (38° C.) containing 2% bovine serum albumin (Fraction V, Scrva. Heidelberg, Germany), 0.1% glucose (Riedel-de-Haën Inc., Seelze, Germany), and 0.3% HEPES (ICN Biomedicals Inc., Ohio, USA) is used. The total amount of recirculating buffer is 100 ml. The lungs are suspended by the trachea and ventilated by negative pressure ventilation (inspiratory pressure: −7 cm H2O, expiratory pressure: −2 cm H2O) with 80 breaths per minute resulting in a tidal volume of approximately 2 ml. Every 5 minutes, a deep inspiratory breath (−20 cm H2O) is performed. Artificial thorax chamber pressure is measured with a differential pressure transducer (Validyne DP 45-14), and an air flow velocity with a pneumotachograh tube (Fleisch Type 0000) connected to a differential pressure transducer (Validyne DP 45-15). The perfusate flow (Narcomatic RT-500) and the arterial and venous pressure (Statham P23BB) are continuously monitored. The pH of the perfusate before entering the lung is kept at 7.25 to 7.35 by automatic bubbling of the buffer with CO2 as soon as the pH exceeds this range. A weight transducer is integrated into the chamber lid which allows the continuous assessment of lung weight. Data are recorded on a Pentium II computer using the Mathlab Sofware package (Mathworks, Inc., Nattick Mass., USA). For lung mechanics, the data are analyzed by applying the following formula: P=1/C*VT+RLdV/dT
Where P is chamber pressure, C pulmonary compliance, VT tidal volume, and RL airway resistance. All lung physiology parameters were normalized to time point 0, i.e. after the end of the preconditioning perfusion of 40 minutes.

[4] = test system: resident peritoneal macrophages from mice deficient in both TNF receptor-1 and -2; assay: Whole-cell patch clamp in resident peritoneal macrophages of TNFR1/2-deficient mice; type: cell-based, mouse; details: cells lacking TNF receptors
From the text: as §1, with “Cells were grown in RPMI 1640 containing 2 mM L-glutamine, 100 U/ml penicillin, 10 μpg/ml streptomycin and 10% fetal bovine serum (all from Gibco). For patch clamp, the macrophages ware used 24 h after isolation.” left out
Electrophysiology. […] Currents were recorded with an Axopatch-200A amplifier (Axon Instrument Inc, Foster City, Calif., USA), low pass-filtered at 1 kHz. […]

## TNF: E.coli-derived recombinant murine TNF
[1]; 100 μM amiloride added during pretreatment at pH 6.0
  induced increase in conductance in presence of amiloride: abrogated
[1]; 30 min preincubation at acidic pH (pH 6), TNF, mutTNF 100 ng/ml, peptides 100 μg/ml
  whole cell current / membrane conductance: significant increase in outward and, to a lesser extent, inward current
[1]; endothelial cells
  reversal potential of induced conductance: about 0 mV
[1]; preincubation at pH 7.3 (neutral pH)
  whole cell current / membrane conductance: did not occur
[2]
  chloride efflux (SPQ fluorescence): induced chloride efflux
[3]; after intratracheal instillation, summary in words
  clearing alveolar fluid content ex vivo: capable of clearing alveolar fluid content
[3]; recombinant TNF 5 μg/lung alone, listed as mTNF
  Weight loss of ex vivo instilled rat lung over 80 min: 589 mg and 722 mg and 584 mg
[4]
  whole cell current: induced a voltage-dependent current
